Test results reported in ChEMBL document CHEMBL5131439, “Triproamide and Pemukainalides, Cyclic Depsipeptides from the Marine Cyanobacterium Symploca hydnoides” (J Nat Prod, 2022).
Starred links: 1 amine or outer side, 2 acyl side, 3 side chain; linkers in the order of their positions; H or OH if unused. Non-standard residues stand in square brackets, D forms with d. Residues, ends and D or L forms follow the SMILES beside them. X1 = C[C@H](Cc1ccccc1)[C@H](N[*:1])C(=O)[*:2]; X2 = CC(C)[C@@H](N[*:1])[C@@H](C)C(=O)[*:2]; dNMeV = CN[C@@H](C(=O)O)C(C)C; dHiv = CC(C)[C@@H](O)C(=O)O; Lac = C[C@H](O)C(=O)O

System: MOLT-4
Test: Cytotoxicity against human MOLT-4 cells assessed as reduction in cell viability incubated for 24 hrs by MTT assay
Assay type: functional, cell-based
Details: MOLT-4, 24 h

Going from C#CCCC[C@@H]1OC(=O)[C@H](Cc2ccccc2)NC(=O)[C@H](C(C)C)NC(=O)[C@@H]2CCCN2C(=O)[C@@H]2CCCN2C(=O)[C@H](C)OC(=O)[C@@H](C(C)C)N(C)C(=O)[C@H](C(C)C)NC(=O)C1(C)C to CCCCC[C@@H]1OC(=O)[C@H](Cc2ccccc2)NC(=O)[C@H](C(C)C)NC(=O)[C@@H]2CCCN2C(=O)[C@@H]2CCCN2C(=O)[C@H](C)OC(=O)[C@@H](C(C)C)N(C)C(=O)[C@H](C(C)C)NC(=O)C1(C)C, the IC50 rises from 5.9 µM to 37 µM (6.3-fold).

Going from C=CCCC[C@@H]1OC(=O)[C@H](Cc2ccccc2)NC(=O)[C@H](C(C)C)NC(=O)[C@@H]2CCCN2C(=O)[C@@H]2CCCN2C(=O)[C@H](C)OC(=O)[C@@H](C(C)C)N(C)C(=O)[C@H](C(C)C)NC(=O)C1(C)C to CC(C)[C@H]1NC(=O)[C@@H]2CCCN2C(=O)[C@H]([C@H](C)Cc2ccccc2)NC(=O)[C@@H]2CCCN2C(=O)[C@@H](C(C)C)N(C)C(=O)[C@@H](C(C)C)OC(=O)[C@@H]2CCCN2C(=O)[C@H](C)OC(=O)[C@@H]1C (cyclo([Lac]P[dHiv][dNMeV]P[X1]P[X2])), the IC50 falls from 5.6 µM to 2.5 µM (2.2-fold).

For CC(C)[C@@H]1OC(=O)[C@H](C)[C@@H](C(C)C)NC(=O)[C@@H]2CCCN2C(=O)[C@H]([C@H](C)Cc2ccccc2)NC(=O)[C@@H]2CCCN2C(=O)[C@@H](C(C)C)OC(=O)[C@@H]2CCCN2C(=O)[C@@H](C(C)C)N(C)C1=O, the IC50 was 23 µM.
